# Read-outs that look alike come from different tables or passages of the source.
# How the values were obtained:
# [1] = Photodecomposition quantum yields (photostability under visible light); format: physicochemical; conditions: for 10^−5 Φp (photodecomposition quantum yield): visible light over 450 nm; for ΦP (photodecomposition quantum yield) / calculated photodecomposition quantum yields, level: visible light λ ≥ 450 nm; for calculated photodecomposition quantum yields, level: solvent not stated
# Excerpt: The absorption spectra of the studied curcumin derivatives 2 and 3 were monitored during the irradiation and compared with curcumin and zinc(II) phthalocyanine (ZnPc) as references (Figure 8). Under visible light irradiation (λ ≥ 450 nm), curcumin derivatives 2 and 3 only slightly decomposed. The calculated quantum yields were at the level of […]. […] Considering the obtained results, the morpholinoethyl and BF2 moieties tend to stabilize the curcumin core and prevent its photodecomposition. Partial reduction in light absorption (expressed by ε values) has also been noted for other photosensitizers subjected to the quaternization when 2-(morpholin-4-yl)ethoxy substituents were transformed into 2-(N-methylmorpholinium)ethoxy ones.
# The photostability measurements were conducted in DMSO and DMF at ambient temperature under aerobic conditions according to the previously described method. A 150 W xenon lamp (Optel, Opole, Poland) was utilized as a light source. In order to separate the visible light (>450 nm), the HCC-16 cutting filter was used. The spectral changes under the irradiation were recorded with an OceanOptics Flame spectrophotometer equipped with a DT-MINI-2-GS light source (OceanOptics, Dunedin, FL, USA). The photodegradation quantum yields were then calculated using the previously presented equation [39, 73, 74, 76].
# [2] = Singlet oxygen generation quantum yields, indirect method with DPBF or TTF; format: physicochemical
# Experimental: Singlet oxygen generation quantum yield assessment constitutes a crucial measurement for the prospective photosensitizers applied in photodynamic therapy. For the singlet oxygen generation study, the indirect method was chosen with two different singlet oxygen quenchers—1,3-diphenylisobenzofuran (DPBF) and tetrathiafulvalene (TTF). Due to the partial overlapping of the DPBF band with the studied compounds’ bands in absorption spectra, a singlet oxygen formation assessment was also performed with TTF as a chemical singlet oxygen scavenger. The values obtained for new curcuminoids 2 and 3 were referenced to curcumin and ZnPc.
# Singlet oxygen quantum yield measurements for 2, 3, and curcumin were assessed in dimethyl sulfoxide (DMSO; Fisher, Longborough, UK) and N,N-dimethylformamide (DMF; Fisher) at ambient temperature according to the comparative method protocols described previously. The method involves using chemical quenchers of singlet oxygen, 1,3-diphenylisobenzofuran (DPBF; Merck, Steinheim, Germany), tetrathiafulvalene (TTF; Aldrich, Steinheim, Germany), and an unsubstituted zinc(II) phthalocyanine (ZnPc; Aldrich) as a reference compound. The mixtures of curcumins and DPBF or TTF were irradiated with light adjusted to the maximum absorbance wavelength through the M250 monochromator (Optel, Opole, Poland). The changes in spectra under the irradiation were recorded with an OceanOptics Flame spectrophotometer equipped with a DT-MINI-2-GS light source. The singlet oxygen quantum yields were calculated using the previously presented equation [39, 73, 74, 75].
# [3] = tested on: PHDF—primary human dermal fibroblasts; assay: MTT cell viability assay; format: cell-based
# Experimental: (§1) To determine the toxicity of the tested compounds against normal and tumor cells, a cell viability assay was performed using MTT dye. The following cell lines were used: PHDF—primary human dermal fibroblasts, MRC-5—lung fibroblasts, WM266-4—melanoma, and WM115—melanoma. Whenever possible, the IC50 value was calculated for each cell line. The IC50 results are reported in Table 9, while Figure 14 presents graphs illustrating the dependence of cell viability on the concentration of the tested compounds.
# (§2) In order to analyze the cytotoxic effect of curcumin and compounds 2 and 3, different cell lines were used: PHDF—primary human dermal fibroblasts, MRC-5—lung fibroblasts, WM266-4—melanoma (low-melanotic), and WM115—melanoma (high-melanotic). All cell lines were seeded onto 96-well flat-bottom plates at a concentration of 15,000 cells/well. Curcumin (1) and compounds 2 and 3 were dissolved in the completed culture medium at the final concentrations of 5 µM, 10 µM, 20 µM, 30 µM, 40 µM, and 50 µM. The final volume of medium in each well was 200 µL. Cells which were not exposed to the tested compounds constituted a control group. After 24 h, each of the reagents was added to the cells. Control cells were not treated with synthesized reagents; they were incubated with a completed cell culture medium. The incubation of cells with 1, 2, or 3 lasted 24 and 48 h. Then, the medium was discarded, and the new medium containing MTT (3-(4,5-dimethylthiazol-2-yl)-2,5-diphenyltetrazolium bromide) (Affymetrix, Cleveland, OH, USA) at a final concentration of 0.5 mg/mL was added to the cell culture. Cells were incubated for 2.5 h in cell culture conditions. Next, the medium was removed, and 100 µL of DMSO (Thermo Scientific, Waltham, MA, USA) was added to dissolve the formed formazan crystals. The absorbance was read with a Multiskan plate reader at 570 nm and the background at 655 nm (Thermo Scientific, Waltham, MA, USA). The experiment was performed in triplicate.
# (§3) PHDF cells were extracted from skin pieces collected following mastectomy procedures at the Greater Poland Cancer Centre in Poznań, Poland. Each time, informed patient agreement was acquired for the “The Cancer Genome Atlas (TCGA)” project to utilize biological material for scientific research purposes. […] The MRC-5, WM266-4, and WM115 cell lines were obtained from the American Type Culture Collection (ATCC). For culturing of the PHDF, WM266-4, and WM115 cell lines, the medium contained Dulbecco′s Modified Eagle′s Medium (DMEM) (Biowest, Nuaillé, France), 10% of fetal bovine serum (Biowest, Nuaillé, France), and 1% of penicillin/streptomycin agents (Merck Millipore, Darmstadt, Germany). Cells were incubated in a humidified incubator containing 5% CO2. The MRC-5 cell line was cultured similarly to the method described in our previous article. Briefly, cells were incubated at 37 °C in an atmosphere enriched with 5% CO2. The basic culture medium was Dulbecco’s Modified Eagle’s Medium (DMEM) (Biowest, Nuaillé, France) supplemented with 10% fetal bovine serum (FBS) (Biowest, Nuaillé, France) with the addition of 2 mM L-glutamine and 5% non-essential amino acid solution.
# [4] = tested on: WM115—melanoma (high-melanotic); assay: MTT cell viability assay; format: cell-based
# Experimental: as §1, §2, §3
# [5] = tested on: WM266-4—melanoma (low-melanotic); assay: MTT cell viability assay; format: cell-based
# Experimental: as §1, §2, §3
# [6] = Homo sapiens, Fibroblast, 24 h incubation, read-out: IC50 24 h
# [7] = Homo sapiens, Fibroblast, 48 h incubation, read-out: IC50 48 h
# [8] = 24 h incubation, read-out: IC50 24 h
# [9] = 48 h incubation, read-out: IC50 48 h (converted)
Molecule,10^−5 Φp (photodecomposition quantum yield) ([1]; DMF),10^−5 Φp (photodecomposition quantum yield) ([1]; DMSO),"calculated photodecomposition quantum yields, level [1]","singlet oxygen quantum yield ([2]; DPBF quencher, DMF)","singlet oxygen quantum yield ([2]; DPBF quencher, DMSO)","singlet oxygen quantum yield ([2]; TTF quencher, DMF)","singlet oxygen quantum yield ([2]; TTF quencher, DMSO)","IC50 [3, 6] [µM]","IC50 [3, 7] [µM]","IC50 [4, 8] [µM]","IC50 [4, 9] [µM]","IC50 [5, 8] [µM]","IC50 [5, 9] [µM]",further results
F[B-]1(F)OC(/C=C/c2ccc(OCCN3CCOCC3)cc2)=CC(/C=C/c2ccc(OCCN3CCOCC3)cc2)=[O+]1 [Compound 2],2.90 10^−5,5.41 10^−5,~10^−4,<0.01,0.024,<0.01,<0.01,> 50,28.4,> 50,> 50,> 50,> 50,ΦP (photodecomposition quantum yield) ([1]; DMF): 2.90 × 10^−5; ΦP (photodecomposition quantum yield) ([1]; DMSO): 5.41 × 10^−5
C[N+]1(CCOc2ccc(C=CC3=CC(C=Cc4ccc(OCC[N+]5(C)CCOCC5)cc4)=[O+][B-](F)(F)O3)cc2)CCOCC1 [Compound 3],20.10 10^−5,6.13 10^−5,~10^−4,0.026,0.046,0.084,0.057,> 50,> 50,> 50,> 50,> 50,> 50,"singlet oxygen generation ΦΔ, reaching up to ([2]; TTF used, solvent not stated): ≤ 0.1"
Curcumin [reference compound],9.99 10^−5,8.31 10^−5,,,,0.098,0.116,,,39.5 ± 9.4,18.1,44.9 ± 10.7,20.6,"singlet oxygen generation ΦΔ, estimated ([2]; natural curcumin, solvent not stated): 0.04–0.1; IC50 [3, 8]: > 50 µM; IC50 ([3]; 48 h incubation, read-out: IC50 48 h): 24.6 µM; IC50 ([5]; 24 h incubation, listed as curcumin, read-out: IC50 24 h): 45 µM; IC50 ([5]; 48 h incubation, listed as curcumin, read-out: IC50 48 h (converted)): 21 µM"

# — article PMC11478334, “Quaternized Curcumin Derivative—Synthesis, Physicochemical Characteristics, and Photocytotoxicity, Including Antibacterial Activity after Irradiation with Blue Light” (Molecules, 2024)
